Assays:
mice = test: Acute toxicity test, oral administration (LD50), mice; assay type: in vivo
Experimental: (§1) Acute and subacute (chronic) toxicity tests were performed using SD rats and mice which has received 3-oxygermylpropionic acid represented by Formula I (hereinafter referred to Compound a) and the above-mentioned primary composition (hereinafter called Composition b).
(§2) For experimentation, a group of 8-10 animals were used.
(§3) Oral administration (no significant
(§4) difference between Compound -a and […]

[1] = Japanese Patent Kokai Publication No. Sho 61-161123; cited from earlier work
[2] = system: mice with streptozosin-induced diabetes; test: Amount of insulin in the pancreas of mice with STZ-induced diabetes; assay type: in vivo, AKR/J1 mouse; conditions: rejection rate of 5%
Experimental: (§5) Continuous 5-day administration of streptozocin (STZ) to an AKR/J1 line mice, that ia an inbred mice with a spontaneous symptom of leukemia, can cause it to take a disease similar to human Type I diabetes (dependent upon insulin). Tests were performed for the purpose of going into influence Compound a and Composition b have on such a mice with streptozosin-induced diabetes.
(§6) Streptozocin (STZ) was continuously administrated to the abdominal cavity of a (masculine) mouse belonging to AKR/J1 at a dose of 40 mg/kg for 5 days to induce an increase in the concentration of glucose in the blood and a decrease in the amount of insulin in the pancreas.
(§7) With Compound a dissolved in a phosphate buffer solution with pH 7.4, the concentration of glucose in the blood was measured at 7 days, 14 days and 21 days from STZ dosing, using a GOD-PAP kit (made by Boehringer Mannheim) based on the glucose oxidase process for measurement. In addition, the amount of insulin in the pancreas, extracted by the acid-ethanol process, was assayed with a radio immuno assay kit (made by Pharmacia Aktiebolag) based on an immunoassay process making use of a competitive reaction by ^125 I-labeled insulin (see Soeldner, JS & Slone, D, "Diabetes", Vol. 14, pp. 771-779, 1985).
(§8) A similar mouse was caused to develop STZ-induced diabetes in a similar manner as referred to in Test Example 1.
(§9) A solution of Compound a in a phosphate buffer with pH 7.4 was continuously administered to the abdominal cavity of the animal at 5 mg/kg over 7 days from STZ dosing.
(§10) At 7 days, 14 days and 21 days from STZ dosing, the concentration of glucose in the blood and the amount of insulin in the pancreas were measured in similar manners as mentioned in Test Example 1.
(§11) A solution of Compound a in a phosphate buffer with pH 7.4 was continuously administered to the abdominal cavity of the animal at 5 mg/kg 15 days from the 7th day after STZ dosing.

SD male rats = test: Subacute toxicity test, oral, over 3 months; assay type: in vivo
Experimental: as §1, §2
Over 3 months, Compound a and Composition b were orally administered to two groups of SD male rats at doses of 256, 380, 640, 1300, 1600 and 4000 mg/kg/day to determined which dose to have no toxic influence at all and which dose to induce positive poisoning.

SD rats = test: Acute toxicity test, oral administration (LD50), rats; assay type: in vivo
Experimental: as §1, §2, §3, §4

Langerhans' islands = test: Degree of cellular infiltration in the Langerhans' islands of mice with STZ-induced diabetes; assay type: in vivo, AKR/J1 mouse; conditions: for Degrees of pancreatitis, 0 (0%) / Degrees of pancreatitis, I (0-25%) / Degrees of pancreatitis, II (25-50%) / Degrees of pancreatitis, III (50-100%) / Incidence of pancreatitis (I-III): STZ + a, at 21 days; for Incidence of pancreatitis (I-III): STZ + buffer 68
Experimental: as §5
Similar mice were caused to develop STZ-induced diabetes in a similar manner as described in Test Example 1.
A solution of Compound a in a similar phosphate buffer with pH 7.4 as used in Test Example 1 was continuously administrated at a rejection rate of 5% to the abdominal cavities according to similar dosing schemes as applied in Test Examples 1, 2 and 3.
At 21 days from STZ dosing, the degree of cellular infiltration in the Langerhans' islands were assayed under an optical microscope.

SD rats and mice = test: Acute toxicity test, comparison and general symptoms; assay type: in vivo
Experimental: as §1, §2

[3] = system: mice with streptozosin-induced diabetes; test: Concentration of glucose in the blood of mice with STZ-induced diabetes; assay type: in vivo, AKR/J1 mouse; conditions: rejection rate of 5%
Experimental: as §5, §6, §7, §8, §9, §10, §11

Substance: 3-oxygermylpropionic acid [Compound a]
- LD50 (mice; female): ≥ 5,800 mg/kg
- LD50 (mice; male): ≥ 5,600 mg/kg
- immunity-accommodative actions [1]: immunity-accommodative actions
- amount of insulin in the pancreas (decreased by STZ) ([2]; Test Example 1, 21 days from dosing, FIG. 1(b)): significant improvements
- amount of insulin in the pancreas (decreased by STZ) ([2]; Test Example 2, 5 mg/kg to the abdominal cavity over 7 days from STZ dosing, 21 days from dosing, FIG. 2(b)): significant improvements
- amount of insulin in the pancreas (decreased by STZ) ([2]; Test Example 3, 5 mg/kg to the abdominal cavity 15 days from the 7th day after STZ dosing, 21 days from dosing): significant improvements
- dose inducing positive poisoning (SD male rats; SD male rats, oral, 3 months, daily): 1600 mg/kg
- reversibility of toxic symptoms without drug treatment (SD male rats; rat, in vivo): Toxic symptoms then disappeared
- dose with no toxic influence whatsoever (SD male rats; rat, in vivo, po, 131400 min): 256 mg/kg
- LD50 (SD rats; female): ≥ 7,050 mg/kg
- LD50 (SD rats; male): ≥ 7,700 mg/kg
- Degrees of pancreatitis, 0 (0%) (Langerhans' islands; 1-7 days): 70%
- Degrees of pancreatitis, I (0-25%) (Langerhans' islands; 1-7 days): 23%
- Degrees of pancreatitis, II (25-50%) (Langerhans' islands; 1-7 days): 4%
- Degrees of pancreatitis, III (50-100%) (Langerhans' islands; 1-7 days): 3%
- Incidence of pancreatitis (I-III) (Langerhans' islands; 1-7 days): 30%
- Degrees of pancreatitis, 0 (0%) (Langerhans' islands; 1-21 days (first line)): 70%
- Degrees of pancreatitis, I (0-25%) (Langerhans' islands; 1-21 days (first line)): 25%
- Degrees of pancreatitis, II (25-50%) (Langerhans' islands; 1-21 days (first line)): 4%
- Degrees of pancreatitis, III (50-100%) (Langerhans' islands; 1-21 days (first line)): 1%
- Incidence of pancreatitis (I-III) (Langerhans' islands; 1-21 days (first line)): 30%
- Degrees of pancreatitis, 0 (0%) (Langerhans' islands; third line, 1-21 days): 68%
- Degrees of pancreatitis, I (0-25%) (Langerhans' islands; third line, 1-21 days): 30%
- Degrees of pancreatitis, II (25-50%) (Langerhans' islands; third line, 1-21 days): 1%
- Degrees of pancreatitis, III (50-100%) (Langerhans' islands; third line, 1-21 days): 1%
- Incidence of pancreatitis (I-III) (Langerhans' islands; third line, 1-21 days): 32%
- infiltrated cells in the Langerhans' islands (increased by STZ dosing) (Langerhans' islands; Test Example 4, 21 days from dosing): successfully decreased the infiltrated cells
- general symptoms (SD rats and mice; in vivo): general symptoms of appeasement, diarrhea, vomiting and typhlectasis
- difference in acute toxicity between Compound a and Composition b (SD rats and mice; oral, mice and rats): no significant difference
- concentration of glucose in the blood (increased by STZ) ([3]; Test Example 1, 21 days from dosing, FIG. 1(a)): significant improvements
- concentration of glucose in the blood (increased by STZ) ([3]; Test Example 2, 5 mg/kg to the abdominal cavity over 7 days from STZ dosing, 21 days from dosing, FIG. 2(a)): significant improvements
- concentration of glucose in the blood (increased by STZ) ([3]; Test Example 3, 5 mg/kg to the abdominal cavity 15 days from the 7th day after STZ dosing, 21 days from dosing, FIG. 3(a)): significant improvements

From patent publication US5180739A, “Use of 3-oxygermylpropionic acid to treat and prevent diabetes-dependent type of autoimmune diseases” (Sanwa Kagaku Kenkyusho Co., Ltd., priority 1990, dated 1993)
